Laboratory results taken from ChEMBL document CHEMBL5518181, “Studies of antibacterial activity (in vitro and in vivo) and mode of action for des-acyl tridecaptins (DATs)” (Eur J Med Chem, 2024).
In brackets after ≈: the same amount, converted by molar mass.

Legend:
Escherichia coli = experiment: Antibacterial activity against wild-type Escherichia coli ATCC 25922 assessed as inhibition of bacterial growth incubated for 18 hrs; type: functional; conditions: read-out: MIC100
Klebsiella pneumoniae = experiment: Antibacterial activity against wild-type Klebsiella pneumoniae ATCC 13883 assessed as inhibition of bacterial growth incubated for 18 hrs; type: functional; conditions: read-out: MIC100
[1] = Hemolytic activity in human red blood cells at 400 ug/ml incubated for 45 mins by spectrophotometric analysis relative to control; type: toxicity, cell-based, Erythrocyte; conditions: red blood cells (erythrocytes), at 400 µg/mL, read-out: Activity
[2] = Cytotoxicity against human HepG2 cells incubated for 40 hrs by celltiter-glo luminescent cell viability assay; type: toxicity, cell-based

SMILES	MIC (Escherichia coli) [µg/mL]	MIC (Klebsiella pneumoniae) [µg/mL]	hemolysis at 0.75 h, 400 ug/ml [1] [%]	IC50 at 40 h [2] [µg/mL]
CC[C@H](C)[C@@H](NC(=O)[C@@H](NC(=O)[C@H](CCC(=O)O)NC(=O)[C@H](Cc1ccccc1)NC(=O)[C@@H](CCN)NC(=O)[C@H](CN)NC(=O)[C@H](CO)NC(=O)[C@@H](Cc1c[nH]c2ccccc12)NC(=O)[C@@H](CO)NC(=O)CNC(=O)[C@@H](CCN)NC(=O)[C@H](N)C(C)C)C(C)C)C(=O)N[C@@H](C)C(=O)O	64 (≈ 46.4 µM)	32 (≈ 23.2 µM)	1.5	> 170
CC[C@H](C)[C@@H](NC(=O)[C@@H](NC(=O)[C@H](CCC(=O)O)NC(=O)[C@H](Cc1c[nH]c2ccccc12)NC(=O)[C@@H](CCN)NC(=O)[C@H](CCN)NC(=O)[C@H](CO)NC(=O)[C@@H](Cc1c[nH]c2ccccc12)NC(=O)[C@@H](CO)NC(=O)CNC(=O)[C@@H](CCN)NC(=O)[C@H](N)C(C)C)C(C)C)C(=O)N[C@@H](C)C(=O)O	16 (≈ 11.2 µM)	8 (≈ 5.58 µM)	43.7	> 170
CC[C@H](C)[C@@H](NC(=O)[C@@H](NC(=O)[C@H](CCC(=O)O)NC(=O)[C@H](Cc1ccccc1)NC(=O)[C@@H](CCN)NC(=O)[C@H](CCN)NC(=O)[C@H](CO)NC(=O)[C@@H](Cc1c[nH]c2ccccc12)NC(=O)[C@@H](CO)NC(=O)CNC(=O)[C@@H](CCN)NC(=O)[C@H](NC(=O)[C@@H](N)CO)C(C)C)C(C)C)C(=O)N[C@@H](C)C(=O)O	32 (≈ 21.6 µM)	16 (≈ 10.8 µM)	4.2	> 170
CC[C@H](C)[C@@H](NC(=O)[C@@H](NC(=O)[C@H](CCC(=O)O)NC(=O)[C@H](Cc1ccccc1)NC(=O)[C@@H](CCN)NC(=O)[C@H](CCN)NC(=O)[C@H](CO)NC(=O)[C@@H](Cc1c[nH]c2ccccc12)NC(=O)[C@@H](CO)NC(=O)CNC(=O)[C@@H](CCN)NC(=O)[C@H](NC(=O)[C@@H](N)CC(=O)O)C(C)C)C(C)C)C(=O)N[C@@H](C)C(=O)O	> 64	> 64	0	> 170
CC[C@H](C)[C@@H](NC(=O)[C@@H](NC(=O)[C@H](CCC(=O)O)NC(=O)[C@H](Cc1ccccc1)NC(=O)[C@@H](CCN)NC(=O)[C@H](CCN)NC(=O)[C@H](CO)NC(=O)[C@@H](Cc1c[nH]c2ccccc12)NC(=O)[C@@H](CO)NC(=O)CNC(=O)[C@@H](CCN)NC(=O)[C@H](N)C(C)C)C(C)C)C(=O)N[C@H](C(=O)O)C(C)(C)C	32 (≈ 22.3 µM)	32 (≈ 22.3 µM)	12.1	43 (≈ 29.9 µM)
CC[C@H](C)[C@@H](NC(=O)[C@@H](NC(=O)[C@H](CCC(=O)O)NC(=O)[C@H](Cc1ccccc1)NC(=O)[C@@H](CCN)NC(=O)[C@H](CCN)NC(=O)[C@H](CO)NC(=O)[C@@H](Cc1c[nH]c2ccccc12)NC(=O)[C@@H](C)NC(=O)CNC(=O)[C@@H](CCN)NC(=O)[C@H](NC(=O)[C@H](C)N)C(C)C)C(C)C)C(=O)N[C@@H](C)C(=O)O	16 (≈ 11 µM)	32 (≈ 22.1 µM)	0	139 (≈ 95.9 µM)
CC[C@H](C)[C@@H](NC(=O)[C@@H](NC(=O)[C@H](CCC(=O)O)NC(=O)[C@H](Cc1ccccc1)NC(=O)[C@@H](CCN)NC(=O)[C@H](CCN)NC(=O)[C@H](CO)NC(=O)[C@@H](Cc1c[nH]c2ccccc12)NC(=O)[C@@H](CO)NC(=O)CNC(=O)[C@@H](CCN)NC(=O)[C@@H](C)NC(=O)[C@H](C)N)C(C)C)C(=O)N[C@@H](C)C(=O)O	64 (≈ 44.5 µM)	32 (≈ 22.3 µM)	1.3	> 170
CC[C@H](C)[C@@H](NC(=O)[C@@H](NC(=O)[C@H](CCC(=O)O)NC(=O)[C@H](Cc1ccccc1)NC(=O)[C@@H](CCN)NC(=O)[C@H](CCN)NC(=O)[C@H](CO)NC(=O)[C@@H](Cc1c[nH]c2ccccc12)NC(=O)[C@@H](CO)NC(=O)CNC(=O)[C@@H](CCN)NC(=O)[C@H](N)C(C)(C)C)C(C)C)C(=O)N[C@@H](C)C(=O)O	32 (≈ 22.7 µM)	16 (≈ 11.4 µM)	13	33 (≈ 23.4 µM)
CC[C@H](C)[C@@H](NC(=O)[C@@H](NC(=O)[C@H](CCC(=O)O)NC(=O)[C@H](C)NC(=O)[C@@H](CCN)NC(=O)[C@H](CCN)NC(=O)[C@H](CO)NC(=O)[C@@H](Cc1c[nH]c2ccccc12)NC(=O)[C@@H](CO)NC(=O)CNC(=O)[C@@H](CCN)NC(=O)[C@H](N)C(C)C)C(C)C)C(=O)N[C@@H](C)C(=O)O	64 (≈ 48.5 µM)	64 (≈ 48.5 µM)	2.5	> 170
CC[C@H](C)[C@@H](NC(=O)[C@H](C)NC(=O)[C@H](CCC(=O)O)NC(=O)[C@H](Cc1ccccc1)NC(=O)[C@@H](CCN)NC(=O)[C@H](CCN)NC(=O)[C@H](CO)NC(=O)[C@@H](Cc1c[nH]c2ccccc12)NC(=O)[C@@H](CO)NC(=O)CNC(=O)[C@@H](CCN)NC(=O)[C@H](NC(=O)[C@H](C)N)C(C)C)C(=O)N[C@@H](C)C(=O)O	32 (≈ 22.3 µM)	32 (≈ 22.3 µM)	5.5	51 (≈ 35.5 µM)
CC[C@H](C)[C@@H](NC(=O)[C@@H](NC(=O)[C@H](CCC(=O)O)NC(=O)[C@H](Cc1ccccc1)NC(=O)[C@@H](CCN)NC(=O)[C@H](CCN)NC(=O)[C@H](CO)NC(=O)[C@@H](Cc1c[nH]c2ccccc12)NC(=O)[C@@H](CO)NC(=O)CNC(=O)[C@@H](CCN)NC(=O)[C@H](NC(=O)[C@H](C)N)C(C)C)C(C)(C)C)C(=O)N[C@@H](C)C(=O)O	2 (≈ 1.35 µM)	2 (≈ 1.35 µM)	82.7	12 (≈ 8.11 µM)
CC[C@H](C)[C@@H](NC(=O)[C@@H](NC(=O)[C@H](CCC(=O)O)NC(=O)[C@H](Cc1ccccc1)NC(=O)[C@@H](CCN)NC(=O)[C@H](CCN)NC(=O)[C@H](CO)NC(=O)[C@@H](Cc1c[nH]c2ccccc12)NC(=O)[C@@H](CC(=O)O)NC(=O)CNC(=O)[C@@H](CCN)NC(=O)[C@H](N)C(C)C)C(C)C)C(=O)N[C@@H](C)C(=O)O	> 64	> 64	0	> 170
CC[C@H](C)[C@@H](NC(=O)[C@@H](NC(=O)[C@H](CCC(=O)O)NC(=O)[C@H](Cc1ccccc1)NC(=O)[C@@H](C)NC(=O)[C@H](CCN)NC(=O)[C@H](CO)NC(=O)[C@@H](Cc1c[nH]c2ccccc12)NC(=O)[C@@H](CO)NC(=O)CNC(=O)[C@@H](CCN)NC(=O)[C@H](N)C(C)C)C(C)C)C(=O)N[C@@H](C)C(=O)O	> 64	64 (≈ 46.9 µM)	0	> 170
CC[C@H](C)[C@@H](NC(=O)[C@@H](NC(=O)[C@H](CCC(=O)O)NC(=O)[C@H](Cc1ccccc1)NC(=O)[C@@H](CCN)NC(=O)[C@H](CN)NC(=O)[C@H](CO)NC(=O)[C@@H](Cc1c[nH]c2ccccc12)NC(=O)[C@@H](CO)NC(=O)CNC(=O)[C@@H](CCN)NC(=O)[C@H](NC(=O)[C@H](C)N)C(C)C)C(C)C)C(=O)N[C@@H](C)C(=O)O	> 64	> 64	0	> 170
CC[C@H](C)[C@@H](NC(=O)[C@@H](NC(=O)[C@H](CCC(=O)O)NC(=O)[C@H](Cc1ccccc1)NC(=O)[C@@H](CCN)NC(=O)[C@H](CCN)NC(=O)[C@H](CO)NC(=O)[C@@H](Cc1c[nH]c2ccccc12)NC(=O)[C@@H](C)NC(=O)CNC(=O)[C@@H](CCN)NC(=O)[C@H](N)C(C)C)C(C)C)C(=O)N[C@@H](C)C(=O)O	> 64	64 (≈ 46.4 µM)	0	> 170
CC[C@H](C)[C@@H](NC(=O)[C@@H](NC(=O)[C@H](CCC(=O)O)NC(=O)[C@H](Cc1ccccc1)NC(=O)[C@@H](CCN)NC(=O)[C@H](CCN)NC(=O)[C@H](CO)NC(=O)[C@@H](Cc1c[nH]c2ccccc12)NC(=O)[C@@H](CO)NC(=O)CNC(=O)[C@@H](CCN)NC(=O)[C@@H](C)N)C(C)C)C(=O)N[C@@H](C)C(=O)O	> 64	> 64	6.4	131 (≈ 95.9 µM)
CC(C)C[C@@H](NC(=O)[C@@H](NC(=O)[C@H](CCC(=O)O)NC(=O)[C@H](Cc1ccccc1)NC(=O)[C@@H](CCN)NC(=O)[C@H](CCN)NC(=O)[C@H](CO)NC(=O)[C@@H](Cc1c[nH]c2ccccc12)NC(=O)[C@@H](CO)NC(=O)CNC(=O)[C@@H](CCN)NC(=O)[C@H](N)C(C)C)C(C)C)C(=O)N[C@@H](C)C(=O)O	64 (≈ 45.9 µM)	64 (≈ 45.9 µM)	45.9	161 (≈ 115 µM)
CC[C@H](C)[C@@H](NC(=O)[C@@H](NC(=O)[C@H](CCC(=O)O)NC(=O)[C@H](Cc1ccccc1)NC(=O)[C@@H](CCN)NC(=O)[C@H](CCN)NC(=O)[C@H](CO)NC(=O)[C@@H](Cc1c[nH]c2ccccc12)NC(=O)[C@@H](CO)NC(=O)CNC(=O)[C@@H](CCN)NC(=O)[C@H](NC(=O)C(F)(F)CN)C(C)C)C(C)C)C(=O)N[C@@H](C)C(=O)O	> 64	> 64	0	> 170
